Literature values as cited in EP1227797B1, “SOLID DISPERSION PHARMACEUTICAL FORMULATIONS” (ABBOTT LABORATORIES, priority 1999, dated 2001).

Settings: PEG solid dispersion formulation

For `O=C1N(Cc2ccc(CO)cc2)[C@H](Cc2ccccc2)[C@H](O)[C@@H](O)[C@@H](Cc2ccccc2)N1Cc1ccc(CO)cc1` [DMP 323], the bioavailability is listed as “unable to improve the bioavailability”.
